Laboratory results: paper PMC11672637, “7-O-Carboxylic Acid-Substituted 3-O-Alkyl Difluoroquercetin; An Aztreonam-Potentiating Agent Against Carbapenemase-Producing Pseudomonas aeruginosa Through Simultaneous Inhibition of Metallo-β-Lactamase and Efflux Pump” (Antibiotics, 2024)
Like-named read-outs stand apart in the source and are kept apart here.

Key:
Assay in all cases: MIC / checkerboard with ATM
Design in all cases: key to Susceptibility category: S: susceptible; I: intermediate; R: resistant
PA-002, blaIMP = format: cell-based, P. aeruginosa; conditions: for MIC: Pseudomonas aeruginosa
PA-033, blaNDM = format: cell-based, P. aeruginosa; conditions: for MIC: Pseudomonas aeruginosa
PA-003, blaVIM = format: cell-based, P. aeruginosa
PA-026, blaNDM = format: cell-based, P. aeruginosa
PA-032, blaIMP = format: cell-based, P. aeruginosa; conditions: for MIC: Pseudomonas aeruginosa
[1] = tested on: NDM-1-Producing P. aeruginosa (PA-017, blaNDM); format: cell-based; conditions: PA-017
PA-034, blaNDM = format: cell-based, P. aeruginosa; conditions: PA-034
PA-031, blaNDM = format: cell-based, P. aeruginosa; conditions: for MIC: Pseudomonas aeruginosa
PA-021, blaIMP = format: cell-based, P. aeruginosa; conditions: for MIC: Pseudomonas aeruginosa
PA-025, blaNDM = format: cell-based, P. aeruginosa; conditions: PA-025

C[C@H]1[C@H](NC(=O)/C(=N\OC(C)(C)C(=O)O)c2csc(N)n2)C(=O)N1S(=O)(=O)O [ATM, aztreonam]
Susceptibility to ATM (PA-002, blaIMP; PA-002, ATM alone): R (R (resistant, MIC ≥ 32 mg/L)) | Susceptibility category (PA-002, blaIMP; PA-002, Table S2): R | MIC (PA-002, blaIMP; PA-002, Table S2, read-out: MIC value): 32 µg/mL | MIC (PA-002, blaIMP; read-out: MIC of ATM, PA-002, ATM alone (5 at 0 mg/L)): 32 µg/mL | Susceptibility to ATM (PA-033, blaNDM; PA-033, ATM alone): S (S (sensitive, MIC ≤ 8 mg/L)) | Susceptibility category (PA-033, blaNDM; PA-033, Table S2): S | MIC (PA-033, blaNDM; PA-033, Table S2, read-out: MIC value): 2 µg/mL | MIC (PA-033, blaNDM; read-out: MIC of ATM, PA-033, ATM alone (5 at 0 mg/L)): 2 µg/mL | Susceptibility to ATM (PA-003, blaVIM; PA-003, ATM alone): R (R (resistant, MIC ≥ 32 mg/L)) | Susceptibility category (PA-003, blaVIM; PA-003, Table S2): I | MIC (PA-003, blaVIM; Pseudomonas aeruginosa, read-out: MIC of ATM): 32 µg/mL | Susceptibility to ATM (PA-026, blaNDM; PA-026, ATM alone): S (S (sensitive, MIC ≤ 8 mg/L)) | Susceptibility category (PA-026, blaNDM; PA-026, Table S2): S | MIC (PA-026, blaNDM; Pseudomonas aeruginosa, read-out: MIC of ATM, PA-026, ATM alone (5 at 0 mg/L)): 8 µg/mL | Susceptibility to ATM (PA-032, blaIMP; PA-032, ATM alone): S (S (sensitive, MIC ≤ 8 mg/L)) | Susceptibility category (PA-032, blaIMP; PA-032, Table S2): S | MIC (PA-032, blaIMP; PA-032, Table S2, read-out: MIC value): 4 µg/mL | MIC (PA-032, blaIMP; read-out: MIC of ATM, PA-032, ATM alone (5 at 0 mg/L)): 4 µg/mL | Susceptibility to ATM ([1]; ATM alone): I (I (intermediate, MIC = 16 mg/L)) | Susceptibility category ([1]; Table S2): I | Susceptibility to ATM (PA-034, blaNDM; ATM alone): I (I (intermediate, MIC = 16 mg/L)) | Susceptibility category (PA-034, blaNDM; Table S2): I | Susceptibility to ATM (PA-031, blaNDM; PA-031, ATM alone): S (S (sensitive, MIC ≤ 8 mg/L)) | Susceptibility category (PA-031, blaNDM; PA-031, Table S2): S | MIC (PA-031, blaNDM; PA-031, Table S2, read-out: MIC value): 8 µg/mL | MIC (PA-031, blaNDM; read-out: MIC of ATM, PA-031, ATM alone (5 at 0 mg/L)): 4 µg/mL | Susceptibility to ATM (PA-021, blaIMP; PA-021, ATM alone): S (S (sensitive, MIC ≤ 8 mg/L)) | Susceptibility category (PA-021, blaIMP; PA-021, Table S2): S | MIC (PA-021, blaIMP; PA-021, Table S2, read-out: MIC value): 1 µg/mL | MIC (PA-021, blaIMP; read-out: MIC of ATM, PA-021, ATM alone (5 at 0 mg/L)): 1 µg/mL | Susceptibility to ATM (PA-025, blaNDM; ATM alone): I (I (intermediate, MIC = 16 mg/L)) | Susceptibility category (PA-025, blaNDM; Table S2): I
